In patent publication US8022072B2, “Azolylmethylidenehydrazine derivative and use thereof” (Kaken Pharmaceutical Co., Ltd., priority 2007, dated 2011):
≈ marks a conversion by molar mass, not a printed value.

Legend:
[1] = tested on: TNCB-induced dermatitis; assay: 2,4,6-Trinitrochlorobenzene (TNCB)-induced dermatitis model, ear edema; type: in vivo, male BALB/c mouse; settings: test compound 1 w/v % (FK506 0.1 w/v %), 20 μL applied to auricle, 24 hours after induction
Method: (§1) The test compound was adjusted to 1 w/v % when in use with a solvent (acetone:olive oil=1:1, v/v)) and put to use. FK506 (control substance) was adjusted to 0.1 w/v % and used.
The fur on the abdomen of male BALB/c mouse was shaved with a hair clipper, and 100 μL of 7 w/v % TNCB sensitizing liquid (solvent was acetone:olive oil=4:1, v/v) was applied. Six days after the sensitization, the thickness of the right auricle was measured with a micrometer (pre-value). After the measurement, 10 μL of 1 w/v % TNCB challenge liquid (solvent was acetone:olive oil=1:9, v/v) was applied to the inside of the right auricle to induce ear edema. About 5 minutes after the application of the challenge liquid, 20 μL of the test compound was applied to the outside of the auricle.
After 24 hours from the induction of ear edema, the thickness of the right auricle was measured by a method similar to the pre-value (post-value). The difference between the post-value and the pre-value of ear edema by each test compound was determined, based on which the inhibition rate was calculated. The activity of each test compound was calculated with the ear edema inhibition rate of FK506 as 1.0 (ear edema inhibition rate of each test compound/ear edema inhibition rate of FK506).

[2] = tested on: OVA-induced dermatitis; assay: Ovalbumin (OVA)-induced dermatitis model, ear edema; type: in vivo, male ICR mouse; parameters: key: ratio of compound's ear edema inhibition rate to FK506's (FK506 = 1.0); settings: test compound 1 w/v % (FK506 0.1 w/v %), 20 μL applied to auricle, 24 hours after induction
Method: as §1
Male ICR mouse was sensitized by the administration of 0.2 mL of OVA-hydroxide aluminum gel suspension to the abdominal cavity. After 14 days from the sensitization, the thickness of the right auricle was measured with a micrometer (pre-value). After the measurement, 20 μL of 0.5 μg/mL OVA challenge liquid (solvent was physiological saline) was subcutaneously administered to the inside of the auricle to induce ear edema. About 5 minutes after the administration of the challenge liquid, 20 μL of the test compound was applied to the outside of the auricle. After 24 hours from the induction of ear edema, the thickness of the right auricle was measured by a method similar to the pre-value (post-value). The difference between the post-value and the pre-value of ear edema by each test compound was determined, based on which the inhibition rate was calculated. The activity of each test compound was calculated with the ear edema inhibition rate of FK506 as 1.0 (ear edema inhibition rate of each test compound/ear edema inhibition rate of FK506).

[3] = tested on: Trichophyton rubrum KD-101; assay: Antifungal activity evaluation test, MIC, Trichophyton rubrum KD-101; type: cell-based; settings: KD101, 168 h, Sabouraud Dextrose Broth, 30° C., 7 days, visual, read-out: MIC T. rub. KD-101
Method: (§2) The minimum inhibitory concentration (MIC) for Trichophyton mentagrophytes, Trichophyton rubrum, and Malassezia furfur was measured according to the following procedure. • Test compound solution: A test compound was dissolved in dimethyl sulfoxide (DMSO) at a concentration of 5 mg/mL as a stock solution. […] Then, as a test medium, a fungal solution of Trichophyton species was 100-fold diluted with Sabouraud Dextrose Broth (Difco), and a fungal solution of Malassezia furfur IFO-0656 was 100-fold diluted with MU medium to give each inoculum (2×10^4 cells/mL). • Measurement of MIC of Trichophyton fungi: Sabouraud Dextrose Broth (Difco) was dispensed by 100 μL to a given well of a 96 well flat microplate. Then, a test compound solution (2 μL) was added, and the mixture was thoroughly mixed with a plate mixer. A fungal solution (100 μL) was inoculated and cultured at 30° C. for 7 days. The presence or absence of the cell growth was visually observed, and the minimum medicament concentration at which the cell growth was prevented was taken as MIC (μg/mL). • Measurement of MIC of Malassezia furfur: Since the urease activity of this fungus and the fungus growth rate are co-related, MIC was evaluated by the following method using urease activity as an index. MU medium was dispensed by 100 μL to a given well of a 96 well flat microplate. Then, a test compound solution (2 μL) was added, and the mixture was thoroughly mixed with a plate mixer. A fungal solution (100 μL) was inoculated and cultured at 30° C. The culture was stopped on day 4 or 5 of culture when the color tone of the MU medium changes from yellow to red in visual observation of the fungus growth in a well free of addition of a test substance. Then the plate was stirred until the fungus became uniform, and the urease activity was measured based on the measurement of absorbance at 550 nm using a plate reader.

[4] = tested on: Trichophyton rubrum KD-107; assay: Antifungal activity evaluation test, MIC, Trichophyton rubrum KD-107; type: cell-based; settings: KD107, 168 h, Sabouraud Dextrose Broth, 30° C., 7 days, visual, read-out: MIC T. rub. KD-107
Method: as §2

[5] = tested on: Malassezia furfur IFO-0656; assay: Antifungal activity evaluation test, MIC by urease activity, Malassezia furfur IFO-0656; type: cell-based; settings: IFO0656, 96 h, MU medium, 30° C., day 4 or 5, urease activity of 20% or below, read-out: MIC M. fur. IFO-0656
Method: as §2

[6] = tested on: Trichophyton mentagrophytes KD-04; assay: Antifungal activity evaluation test, MIC, Trichophyton mentagrophytes KD-04; type: cell-based; settings: KD04, 168 h, Sabouraud Dextrose Broth, 30° C., 7 days, visual, read-out: MIC T. men. KD-04
Method: as §2

[7] = tested on: Trichophyton mentagrophytes SM-110; assay: Antifungal activity evaluation test, MIC, Trichophyton mentagrophytes SM-110; type: cell-based; settings: SM110, 168 h, Sabouraud Dextrose Broth, 30° C., 7 days, visual, read-out: MIC T. men. SM-110
Method: as §2

[8] = tested on: Trichophyton mentagrophytes KD-04; assay: Influence of keratin addition on anti-Trichophyton activity; type: cell-based; settings: Trichophyton mentagrophytes, KD04, 168 h, 30° C., 7 days
Method: The MIC increase rate by the addition of keratin to a medium was measured by the following procedure. • Test compound solution: A test compound was dissolved in dimethyl sulfoxide (DMSO) at a concentration of 5 mg/mL as a stock solution. Diluting this solution with DMSO, a 2-fold dilution series was prepared. • Test strain: Trichophyton mentagrophytes KD-04 was used. Preparation of Fungal Inoculum: the Above-Mentioned Strain was suspended in 0.05% Tween 80-containing physiological saline, and adjusted to a fungus concentration of 2×10^6 cells/mL using a counting chamber. […] The physiological saline was removed, and the mixture was further washed once with physiological saline (3 mL). The physiological saline was removed, and a test compound solution (10 μL) and Sabouraud Dextrose Broth (Difco) (500 μL) were added to keratin, and the mixture was sufficiently stirred. Then, inoculum (500 μL) of T. mentagrophytes KD-04 was added, and the mixture was cultured at 30° C. for 7 days. As a comparison control, an experiment similar to the above was performed under conditions free of keratin addition.

[9] = T. mentagrophytes KD-04, free of keratin addition, read-out: MIC SDB alone
[10] = T. mentagrophytes KD-04, keratin 50 mg added, read-out: MIC SDB + keratin

Structure (SMILES): CN(C)N=C(c1ccccc1CCc1ccccc1)n1ccnc1 [Compound No. 6, N′-[1-imidazol-1-yl-1-(2-phenethylphenyl)methylidene]-N,N-dimethylhydrazine]
- TNCB-induced dermatitis, with ear edema inhibition rate of FK506 as 1.0 [1]: 0.7
- OVA-induced dermatitis, with ear edema inhibition rate of FK506 as 1.0 [2]: 1.4
- MIC [3]: 0.1 µg/mL (≈ 0.314 µM)
- MIC [4]: 0.05 µg/mL (≈ 0.157 µM)
- MIC [5]: 0.78 µg/mL (≈ 2.45 µM)
- MIC [6]: 0.05 µg/mL (≈ 0.157 µM)
- MIC [7]: 0.1 µg/mL (≈ 0.314 µM)

Structure (SMILES): CN(C)N=C(c1ccccc1CCCOc1ccccc1)n1ccnc1 [Compound No. 9, N′-[1-imidazol-1-yl-1-[2-(3-phenoxypropyl)phenyl]methylidene]-N,N-dimethylhydrazine]
- TNCB-induced dermatitis, with ear edema inhibition rate of FK506 as 1.0 [1]: 0.7
- OVA-induced dermatitis, with ear edema inhibition rate of FK506 as 1.0 [2]: 1.2
- MIC [3]: 0.05 µg/mL (≈ 0.143 µM)
- MIC [4]: 0.05 µg/mL (≈ 0.143 µM)
- MIC [5]: 0.2 µg/mL (≈ 0.574 µM)
- MIC [6]: 0.05 µg/mL (≈ 0.143 µM)
- MIC [7]: 0.2 µg/mL (≈ 0.574 µM)

Structure (SMILES): COc1ccc(COc2ccccc2C(=NN(C)C)n2ccnc2)cc1 [Compound No. 52, N′-[1-imidazol-1-yl-1-[2-(4-methoxybenzyloxy)phenyl]methylidene]-N,N-dimethylhydrazine]
- TNCB-induced dermatitis, with ear edema inhibition rate of FK506 as 1.0 [1]: 0.7
- OVA-induced dermatitis, with ear edema inhibition rate of FK506 as 1.0 [2]: 1.1
- MIC [3]: 0.05 µg/mL (≈ 0.143 µM)
- MIC [4]: 0.05 µg/mL (≈ 0.143 µM)
- MIC [8, 9]: 0.1 µg/mL (≈ 0.285 µM)
- MIC [8, 10]: 0.2 µg/mL
- MIC [5]: 0.39 µg/mL (≈ 1.11 µM)
- MIC [6]: 0.2 µg/mL (≈ 0.571 µM)
- MIC [7]: 0.39 µg/mL (≈ 1.11 µM)

Structure (SMILES): CN(C)N=C(c1ccccc1OCCOc1ccccc1)n1ccnc1 [Compound No. 66, N′-[1-imidazol-1-yl-1-[2-(2-phenoxyethoxy)phenyl]methylidene]-N,N-dimethylhydrazine]
- TNCB-induced dermatitis, with ear edema inhibition rate of FK506 as 1.0 [1]: 0.8
- OVA-induced dermatitis, with ear edema inhibition rate of FK506 as 1.0 [2]: 1.1
- MIC [3]: 0.1 µg/mL (≈ 0.285 µM)
- MIC [4]: 0.05 µg/mL (≈ 0.143 µM)
- MIC [8, 9]: 0.05 µg/mL (≈ 0.143 µM)
- MIC [8, 10]: 0.1 µg/mL
- MIC [5]: 0.39 µg/mL (≈ 1.11 µM)
- MIC [6]: 0.1 µg/mL (≈ 0.285 µM)
- MIC [7]: 0.2 µg/mL (≈ 0.571 µM)

Structure (SMILES): CN(C)N=C(c1ccccc1OCCCCOc1ccccc1)n1ccnc1 [Compound No. 71, N′-[1-imidazol-1-yl-1-[2-(4-phenoxybutoxy)phenyl]methylidene]-N,N-dimethylhydrazine]
- TNCB-induced dermatitis, with ear edema inhibition rate of FK506 as 1.0 [1]: 0.9
- OVA-induced dermatitis, with ear edema inhibition rate of FK506 as 1.0 [2]: 0.9
- MIC [3]: 0.05 µg/mL (≈ 0.132 µM)
- MIC [4]: 0.025 µg/mL (≈ 0.0661 µM)
- MIC [5]: 0.05 µg/mL (≈ 0.132 µM)
- MIC [6]: 0.05 µg/mL (≈ 0.132 µM)
- MIC [7]: 0.1 µg/mL (≈ 0.264 µM)

Structure (SMILES): CCCCSc1ccccc1C(=NN(C)C)n1ccnc1 [Compound No. 82, N′-[1-(2-butylthiophenyl)-1-imidazol-1-ylmethylidene]-N,N-dimethylhydrazine]
- TNCB-induced dermatitis, with ear edema inhibition rate of FK506 as 1.0 [1]: 0.6
- OVA-induced dermatitis, with ear edema inhibition rate of FK506 as 1.0 [2]: 1.1
- MIC [3]: 0.1 µg/mL (≈ 0.331 µM)
- MIC [4]: 0.05 µg/mL (≈ 0.165 µM)
- MIC [8, 9]: 0.1 µg/mL (≈ 0.331 µM)
- MIC [8, 10]: 0.2 µg/mL
- MIC [5]: 0.78 µg/mL (≈ 2.58 µM)
- MIC [6]: 0.05 µg/mL (≈ 0.165 µM)
- MIC [7]: 0.2 µg/mL (≈ 0.661 µM)

Structure (SMILES): CN(C)N=C(c1sccc1OCCOc1ccccc1)n1ccnc1 [Compound No. 101, N′-[1-imidazol-1-yl-1-[3-(2-phenoxyethoxy)thiophen-2-yl]methylidene]-N,N-dimethylhydrazine]
- TNCB-induced dermatitis, with ear edema inhibition rate of FK506 as 1.0 [1]: 0.8
- OVA-induced dermatitis, with ear edema inhibition rate of FK506 as 1.0 [2]: 1.4
- MIC [3]: 0.05 µg/mL (≈ 0.14 µM)
- MIC [4]: 0.05 µg/mL (≈ 0.14 µM)
- MIC [5]: 0.2 µg/mL (≈ 0.561 µM)
- MIC [6]: 0.05 µg/mL (≈ 0.14 µM)
- MIC [7]: 0.2 µg/mL (≈ 0.561 µM)

Structure (SMILES): CCN(C)N=C(c1ccccc1OCCOc1ccccc1)n1ccnc1 [Compound No. 114, N-ethyl-N′-[1-imidazol-1-yl-1-[2-(2-phenoxyethoxy)phenyl]methylidene]-N-methylhydrazine]
- TNCB-induced dermatitis, with ear edema inhibition rate of FK506 as 1.0 [1]: 0.7
- OVA-induced dermatitis, with ear edema inhibition rate of FK506 as 1.0 [2]: 0.9
- MIC [3]: 0.1 µg/mL (≈ 0.274 µM)
- MIC [4]: 0.05 µg/mL (≈ 0.137 µM)
- MIC [5]: 0.2 µg/mL (≈ 0.549 µM)
- MIC [6]: 0.2 µg/mL (≈ 0.549 µM)
- MIC [7]: 0.39 µg/mL (≈ 1.07 µM)

Structure (SMILES): CCCCCOc1ccccc1C(=NN1CCCC1)n1ccnc1 [Compound No. 157, [1-imidazol-1-yl-1-(2-pentyloxyphenyl)methylidene]pyrrolidin-1-ylamine]
- TNCB-induced dermatitis, with ear edema inhibition rate of FK506 as 1.0 [1]: 0.8
- OVA-induced dermatitis, with ear edema inhibition rate of FK506 as 1.0 [2]: 1.3
- MIC [3]: 0.05 µg/mL (≈ 0.153 µM)
- MIC [4]: 0.05 µg/mL (≈ 0.153 µM)
- MIC [5]: 0.2 µg/mL (≈ 0.613 µM)
- MIC [6]: 0.05 µg/mL (≈ 0.153 µM)
- MIC [7]: 0.1 µg/mL (≈ 0.306 µM)

Structure (SMILES): c1ccc(OCCOc2ccccc2C(=NN2CCCC2)n2ccnc2)cc1 [Compound No. 161, [1-imidazol-1-yl-1-[2-(2-phenoxyethoxy)phenyl]methylidene]pyrrolidin-1-ylamine]
- TNCB-induced dermatitis, with ear edema inhibition rate of FK506 as 1.0 [1]: 0.7
- OVA-induced dermatitis, with ear edema inhibition rate of FK506 as 1.0 [2]: 0.9
- MIC [3]: 0.1 µg/mL (≈ 0.266 µM)
- MIC [4]: 0.1 µg/mL (≈ 0.266 µM)
- MIC [5]: 0.39 µg/mL (≈ 1.04 µM)
- MIC [6]: 0.2 µg/mL (≈ 0.531 µM)
- MIC [7]: 0.39 µg/mL (≈ 1.04 µM)
